{
  "source": "patent US20120135104A1",
  "about": "“Enhanced Absorption of Omega Fatty Acid Oils” (priority 2010, published 2012)",
  "origin": "cited, not measured here",
  "conditions": "single emulsifier",
  "data": [
    {"substance": "polyoxyethylene sorbitan monooleate", "values": [
      {"measurement": "HLB value", "value": "about 15"}
    ]}
  ]
}
